According to patent US9422286B2, “Metal-binding bifunctional compounds as diagnostic agents for Alzheimer's disease” (Washington University, priority 2014, dated 2016):

Experiments:
[1] = test system: Aβ fibrils; conditions: non-Cu binding blocking agent; cited from earlier work
[2] = pH-spectrophotometric titration, stability constants of Cu^2+ complexes; assay type: physicochemical; conditions: for Calculated pCu (−log[Cu]free): [Cu^2+]tot = [chelator]tot = 50 μM
Method: Similar spectrophotometric titrations were performed to determine the stability constants and solution speciation of Cu^2+ with L3-L6. Stability constants were determined by titrating solutions of the compounds and equimolar amounts of Cu(ClO4)2.6H2O (50 μM or 0.5 mM) with small aliquots of 0.1 M NaOH at room temperature. At least 30 UV-vis spectra were collected in the pH 3-11 range (FIG. 2). The acidity and stability constants were calculated using the HypSpec computer program (Protonic Software, UK, Gans, P.; Sabatini, A.; Vacca, A. Ann. Chim. 1999, 45). Speciation plots of the compounds and their metal complexes were calculated using the program HySS2009 (Protonic Software, UK) (Alderighi, L. Coord. Chem. Rev. 1999, 184, 311). […] The data obtained for the Cu complex of compound L7 could not be fit satisfactorily using a reasonable model, most likely due to a multinuclear complex formation, as observed by X-ray crystallography.

[3] = UV-vis pH titration, acidity constant determination; assay type: physicochemical; conditions: 50 μM, 0.1 M NaCl, room temperature, methanol-water (methanol ≤20% v:v); for [HL1]/[L1]^− (pKa4): assigned to the phenol group
Method: UV-vis pH titrations were employed to determine the acidity constants of compounds L3-L7 and the stability constants of their Cu^2+ complexes. For acidity constants, solutions of the bifunctional compound (50 μM, 0.1 M NaCl, pH 3) were titrated with small aliquots of 0.1 M NaOH at room temperature. At least 30 UV-vis spectra were collected in the pH 3-11 range (FIG. 1).

[4] = target: T1, Aβ40 fibrils (Homo sapiens, UniProt P05067); assay: Direct fluorescence assay with Aβ fibrils; assay type: binding; conditions: [Aβ]=5 μM, λex/λem=350/450 nm; read-out: Kd, Aβ fibrils, compound fluorescence
T1 construct: purchased Keck Biotechnology Resource Laboratory, Yale University
T1 sequence (P05067 672-711 limits assumed): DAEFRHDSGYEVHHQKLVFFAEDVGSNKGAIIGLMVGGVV
Method: (§1) Aβ monomeric films were prepared by dissolving commercial Aβ42 (or Aβ40 for Aβ fibril binding studies) peptide (Keck Biotechnology Resource Laboratory, Yale University) in hexafluoroisopropanol (HFIP) (1 mM) and incubating for 1 hour at room temperature (Klein, W. L. Neurochemistry International 2002, 41, 345). The solution was then aliquoted out and evaporated overnight. The aliquots were vacuum centrifuged and the resulting monomeric films stored at −80° C. Aβ fibrils were generated by dissolving monomeric Aβ films in dimethyl sulfoxide (DMSO), diluting into the appropriate buffer, and incubating for 24 hours at 37° C. with continuous agitation (final DMSO concentration was <2%). […]
(§2) All fluorescence measurements were performed using a SpectraMax M2e plate reader (Molecular Devices). For ThT fluorescence studies, samples were diluted to a final concentration of 2.5 μM Aβ in phosphate buffered saline (PBS) solution containing 10 μM ThT and the fluorescence measured at 485 nm (λex=435 nm). For Aβ fibril binding studies, a 5 μM Aβ fibril solution was titrated with small amounts of compound and their fluorescence intensity measured (λex/λem=350/450 nm). For ThT competition assays, a 2 μM Aβ fibril solution with 1 μM ThT was titrated with small amounts of compound and the ThT fluorescence measured (λex/λem=435/485 nm). […]

[5] = Biodistribution and brain uptake of ^64Cu-radiolabeled compounds; assay type: in vivo, wild type CD-1 female mice; conditions: ^64Cu complexes, tail vein injection, 2, 60 and 240 min
Method: Biodistribution studies were conducted in wild type CD-1 female mice (Charles River Laboratories) of age 5-7 weeks weighing 25.4±1.4 g. The injection dose was prepared by diluting to a 90% saline solution. The uptake of compounds was evaluated in mice (L3 and L6, n=7; L4, L5, and L7, n=3) that were injected via the tail vein with 0.22-0.37 MBq (6-10 μCi) of each compound per animal in 100 μL saline. After each time points (2, 60, and 240 min), mice were anesthetized with 1-2% isoflurane and sacrificed by cervical dislocation. Brain, blood, kidney, liver and other organs of interest were harvested and amount of radioactivity in each organ was counted on a gamma counter containing a NaI crystal. The data was corrected for radioactive decay and percent injected dose per gram (% ID/g) of tissue was calculated. All samples were calibrated against a known standard. Quantitative data were processed by Prism 6 (GraphPad Software, v 6.03, La Jolla, Calif.) and expressed as Mean±SEM. Statistical analysis performed using one-way analysis of variance and Student's t test. Differences at the 95% confidence level (p<0.05) were considered statistically significant.

[6] = target: T2, ThT-bound Aβ40 fibrils (Homo sapiens, UniProt P05067); assay: ThT fluorescence competition assay; assay type: binding; conditions: [Aβ]=2 μM, [ThT]=1 μM
T2 construct: purchased Keck Biotechnology Resource Laboratory, Yale University
T2 sequence (P05067 672-711 limits assumed): as above
Method: as §1, §2

[7] = test system: Aβ deposits; conditions: cited from earlier work
[8] = Cu^2+ complex, equimolar Cu(ClO4)2, room temperature

Row | SMILES | [H2L1]^+/[HL1] (pKa3) [3] | [H3L1]^+2/[H2L1]^+ (pKa2) [3] | [H4L1]^3+/[H3L1]^2+ (pKa1) [3] | [HL1]/[L1]^− (pKa4) [3] | Stability constant, M^2+ + L^− = [ML]^+ [2, 8] | Stability constant, M^2+ + HL = [MHL]^+2 [2, 8] | Brain uptake and wash out [5] | further results
1 | Oc1cccc2scnc12 [BTZ, 4-hydroxybenzothiazole] | – | – | – | – | – | – | – | Affinity for Aβ fibrils [1]: nanomolar affinity
2 | O=C(O)CN(CCN(CC(=O)O)CC(=O)O)CCN(CC(=O)O)CC(=O)O [DTPA, diethylene triamine pentaacetic acid, reference compound] | – | – | – | – | – | – | – | Calculated pCu (−log[Cu]free) ([2]; pH 6.6): 9.3; Calculated pCu (−log[Cu]free) ([2]; pH 7.4): 10.1
3 | COc1cc(-c2nc3ccccc3s2)cc(CN2CCN(C)CCN(C)CC2)c1O [L3] | 8.27 | 6.35 | 3.78 | 9.34 | 31.96(60) | – | – | Stability constant, [ML(H2O)]^+1 = [ML(OH)] + H^+ [2, 8]: 10.14(60); Kd [4]: ~575 nM
4 | COc1cc(-c2nc3ccccc3s2)cc(CN2Cc3cccc(n3)CNCc3cccc(n3)C2)c1O [L4] | 9.34 | 7.84 | 5.14 | 10.14 | 27.093 | 2.881 | higher initial brain uptake at 2 min, followed by rapid wash out | –
5 | COc1cc(-c2nc3ccccc3s2)cc(CN2Cc3cccc(n3)CN(C)Cc3cccc(n3)C2)c1O [L5] | 8.02 | 5.61 | 4.80 | 9.60 | 27.224 | 4.008 | higher initial brain uptake at 2 min, followed by rapid wash out | –
6 | COc1cc(-c2nc3ccccc3s2)cc(CN2Cc3cccc(n3)CN(CC(=O)O)Cc3cccc(n3)C2)c1O [L6] | 8.71 | 6.93 | 4.57 | 9.98 | 30.098 | 3.012 | higher initial brain uptake at 2 min, followed by rapid wash out | Ki [6]: 325 ± 40 nM
7 | COc1cc(-c2nc3ccccc3s2)cc(CN2Cc3cccc(n3)CN(Cc3cc(-c4nc5ccccc5s4)cc(OC)c3O)Cc3cccc(n3)C2)c1O [L7] | 8.22 | 7.39 | 4.35 | 10.65 | – | – | higher initial brain uptake at 2 min, followed by rapid wash out | –
8 | COc1ccc(/C=C/c2ccc(O)cc2)cc1OC [L8] | – | – | – | – | – | – | – | Ki [6]: 66 ± 20 nM
9 | [11CH3]Nc1ccc(-c2nc3ccc(O)cc3s2)cc1 [^11C-PiB] | – | – | – | – | – | – | – | Binding to soluble amyloid, NFTs, Lewy bodies ([7]; at nanomolar concentrations): does not bind; Binding to Aβ deposits ([7]; in vitro autoradiography): binds to aggregated, fibrillar Aβ deposits
